Data taken from the NIST ThermoML archive (doi:10.1021/acs.jced.6b00575).
Numbers after ± are expanded uncertainties.

Conditions: 101.33 kPa, Liquid; for electrical conductivity: Alternating current cell with electrodes; for viscosity: Concentric cylinders viscometry; for mass density: Vibrating tube method

| SMILES | viscosity (273.15 K) [mPa·s] | mass density (273.15 K) [kg/m3] | viscosity (278.15 K) [mPa·s] | mass density (278.15 K) [kg/m3] | viscosity (283.15 K) [mPa·s] | mass density (283.15 K) [kg/m3] | viscosity (288.15 K) [mPa·s] | mass density (288.15 K) [kg/m3] | viscosity (313.15 K) [mPa·s] | mass density (313.15 K) [kg/m3] | viscosity (323.15 K) [mPa·s] | mass density (323.15 K) [kg/m3] | viscosity (333.15 K) [mPa·s] | mass density (333.15 K) [kg/m3] | viscosity (343.15 K) [mPa·s] | mass density (343.15 K) [kg/m3] | viscosity (353.15 K) [mPa·s] | mass density (353.15 K) [kg/m3] | viscosity (363.15 K) [mPa·s] | mass density (363.15 K) [kg/m3] | also measured |
| --- | --- | --- | --- | --- | --- | --- | --- | --- | --- | --- | --- | --- | --- | --- | --- | --- | --- | --- | --- | --- | --- |
| CCC(=O)[NH+](C)C.O=S(=O)([N-]S(=O)(=O)C(F)(F)F)C(F)(F)F | 583.6 ± 21 | 1546.8 ± 1.7 | 401.3 ± 13 | 1541.52 ± 1.7 | 284.2 ± 8.5 | 1536.2 ± 1.7 | 207.2 ± 5.6 | 1530.91 ± 1.7 | 57.92 ± 1.2 | 1504.73 ± 1.6 | 39.33 ± 0.82 | 1494.43 ± 1.6 | 27.84 ± 0.58 | 1484.21 ± 1.6 | 20.58 ± 0.43 | 1474.06 ± 1.6 | 15.67 ± 0.33 | 1463.98 ± 1.6 | 12.28 ± 0.26 | 1453.97 ± 1.6 | electrical conductivity (273.15 K): 0.053 ± 0.001 S/m; electrical conductivity (278.15 K): 0.075 ± 0.002 S/m; electrical conductivity (283.15 K): 0.103 ± 0.002 S/m; electrical conductivity (288.15 K): 0.136 ± 0.003 S/m; electrical conductivity (293.15 K): 0.177 ± 0.004 S/m; viscosity (293.15 K): 154.9 ± 3.9 mPa·s; mass density (293.15 K): 1525.62 ± 1.6 kg/m3; electrical conductivity (298.15 K): 0.225 ± 0.005 S/m; viscosity (298.15 K): 117.7 ± 2.7 mPa·s; mass density (298.15 K): 1520.35 ± 1.6 kg/m3; electrical conductivity (303.15 K): 0.28 ± 0.006 S/m; viscosity (303.15 K): 91.33 ± 2 mPa·s; mass density (303.15 K): 1515.12 ± 1.6 kg/m3; electrical conductivity (313.15 K): 0.415 ± 0.008 S/m; electrical conductivity (323.15 K): 0.585 ± 0.012 S/m; electrical conductivity (333.15 K): 0.787 ± 0.016 S/m; electrical conductivity (343.15 K): 1.01 ± 0.02 S/m; electrical conductivity (353.15 K): 1.28 ± 0.026 S/m |
| CC(=O)N(C)C [N,N-dimethylethanamide] | 1.41 ± 0.03 | 959.16 ± 0.98 | 1.29 ± 0.03 | 954.56 ± 0.98 | 1.19 ± 0.03 | 949.95 ± 0.97 | 1.09 ± 0.02 | 945.35 ± 0.97 | 0.772 ± 0.017 | 922.26 ± 0.95 | 0.692 ± 0.015 | 912.99 ± 0.94 | 0.614 ± 0.014 | 903.68 ± 0.93 | 0.553 ± 0.013 | 894.31 ± 0.92 | 0.502 ± 0.011 | 884.9 ± 0.91 | 0.459 ± 0.011 | 875.43 ± 0.9 | viscosity (293.15 K): 1 ± 0.02 mPa·s; mass density (293.15 K): 940.74 ± 0.96 kg/m3; viscosity (298.15 K): 0.946 ± 0.02 mPa·s; mass density (298.15 K): 936.13 ± 0.96 kg/m3; viscosity (303.15 K): 0.883 ± 0.019 mPa·s; mass density (303.15 K): 931.51 ± 0.96 kg/m3 |
| CCC(=O)N(C)C [N,N-dimethylpropionamide] | 1.44 ± 0.03 | 942.45 ± 3.8 | 1.32 ± 0.03 | 938.02 ± 3.8 | 1.21 ± 0.03 | 933.6 ± 3.8 | 1.11 ± 0.03 | 929.18 ± 3.8 | 0.778 ± 0.018 | 907.04 ± 3.7 | 0.696 ± 0.017 | 898.13 ± 3.6 | 0.618 ± 0.015 | 889.17 ± 3.6 | 0.556 ± 0.013 | 880.17 ± 3.6 | 0.504 ± 0.012 | 871.11 ± 3.5 | 0.46 ± 0.011 | 861.99 ± 3.5 | viscosity (293.15 K): 1.02 ± 0.02 mPa·s; mass density (293.15 K): 924.75 ± 3.8 kg/m3; viscosity (298.15 K): 0.958 ± 0.022 mPa·s; mass density (298.15 K): 920.32 ± 3.7 kg/m3; viscosity (303.15 K): 0.892 ± 0.021 mPa·s; mass density (303.15 K): 915.93 ± 3.7 kg/m3 |
| CC(=O)[NH+](C)C.O=S(=O)([N-]S(=O)(=O)C(F)(F)F)C(F)(F)F [N,N-dimethylacetamidium bis(trifluoromethanesulfonyl)amide] |  |  |  |  |  |  |  |  | 67.83 ± 1.4 | 1549.8 ± 1.7 | 44.71 ± 0.93 | 1539.4 ± 1.7 | 31.31 ± 0.65 | 1529.1 ± 1.7 | 22.85 ± 0.48 | 1518.6 ± 1.6 | 17.35 ± 0.36 | 1508.1 ± 1.6 | 13.51 ± 0.28 | 1497.8 ± 1.6 | electrical conductivity (313.15 K): 0.403 ± 0.008 S/m; electrical conductivity (323.15 K): 0.574 ± 0.011 S/m; electrical conductivity (333.15 K): 0.782 ± 0.016 S/m; electrical conductivity (343.15 K): 1.02 ± 0.02 S/m; electrical conductivity (353.15 K): 1.29 ± 0.026 S/m |
| CN(C)C=O [dimethylformamide] | 1.14 ± 0.02 | 967.56 ± 0.12 | 1.06 ± 0.02 | 962.83 ± 0.12 | 0.979 ± 0.021 | 958.1 ± 0.12 | 0.891 ± 0.019 | 953.37 ± 0.12 | 0.684 ± 0.015 | 929.5 ± 0.13 | 0.615 ± 0.013 | 919.86 ± 0.14 | 0.535 ± 0.012 | 910.17 ± 0.14 | 0.484 ± 0.011 | 900.41 ± 0.14 | 0.436 ± 0.01 | 890.57 ± 0.15 | 0.398 ± 0.009 | 880.65 ± 0.15 | viscosity (293.15 K): 0.845 ± 0.018 mPa·s; mass density (293.15 K): 948.61 ± 0.12 kg/m3; viscosity (298.15 K): 0.81 ± 0.017 mPa·s; mass density (298.15 K): 943.85 ± 0.13 kg/m3; viscosity (303.15 K): 0.765 ± 0.016 mPa·s; mass density (303.15 K): 939.07 ± 0.13 kg/m3 |
